Source: patent US7732475B2, “Histone deacetylase inhibitors” (Takeda San Diego, Inc., priority 2005, dated 2010)

Molecular target: HDAC2 (Homo sapiens, UniProt Q92769)
Assay: HDAC2 fluorescence inhibition assay (tBoc-Lys(Ac)-AMC)

Sequence of HDAC2 (Q92769 with tags, fused parts or gaps): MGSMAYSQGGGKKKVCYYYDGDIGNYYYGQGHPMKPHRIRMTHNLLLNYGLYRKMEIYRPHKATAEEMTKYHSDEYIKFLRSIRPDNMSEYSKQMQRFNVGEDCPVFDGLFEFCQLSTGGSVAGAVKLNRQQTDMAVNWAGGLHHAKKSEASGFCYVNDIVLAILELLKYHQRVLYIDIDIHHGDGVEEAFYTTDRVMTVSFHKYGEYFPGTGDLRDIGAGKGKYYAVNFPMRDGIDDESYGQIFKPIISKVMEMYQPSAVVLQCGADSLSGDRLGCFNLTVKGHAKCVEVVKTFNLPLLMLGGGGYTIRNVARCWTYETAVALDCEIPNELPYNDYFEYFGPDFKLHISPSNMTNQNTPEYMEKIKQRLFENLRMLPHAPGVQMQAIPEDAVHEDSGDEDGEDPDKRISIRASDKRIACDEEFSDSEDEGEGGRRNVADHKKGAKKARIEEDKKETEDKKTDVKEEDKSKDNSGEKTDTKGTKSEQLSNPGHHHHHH

| Structure (SMILES) | IC50 [nM] |
| --- | --- |
| CC(=O)Nc1ccc2c(cnn2Cc2ccc(C(=O)Nc3ccccc3N)cc2)c1 [Example 3, 4-((5-acetamido-1H-indazol-1-yl)methyl)-N-(2-aminophenyl)benzamide] | ≤ 50 |
| Nc1ccccc1NC(=O)c1ccc(Cn2ncc3cc([N+](=O)[O-])ccc32)cc1 [Example 5, N-(2-aminophenyl)-4-((5-nitro-1H-indazol-1-yl)methyl)benzamide] | ≤ 50 |
| Nc1ccccc1NC(=O)c1ccc(Cn2ncc3cc(NC(=O)c4ccccc4)ccc32)cc1 [Example 6, 4-((5-benzamido-1H-indazol-1-yl)methyl)-N-(2-aminophenyl)benzamide] | ≤ 50 |
| COCCOC(=O)Nc1ccc2c(cnn2Cc2ccc(C(=O)Nc3ccccc3N)cc2)c1 [Example 13, 2-Methoxyethyl 1-(4-((2-aminophenyl)carbamoyl)benzyl)-1H-indazol-5-ylcarbamate] | ≤ 50 |
| COC(=O)Nc1ccc2c(cnn2Cc2ccc(C(=O)Nc3ccccc3N)cc2)c1 [Example 14, Methyl 1-(4-((2-aminophenyl)carbamoyl)benzyl)-1H-indazol-5-ylcarbamate] | ≤ 50 |
| Nc1ccccc1NC(=O)c1ccc(Cn2ncc3cc(NC(=O)OCc4ccccc4)ccc32)cc1 [Example 15, Benzyl 1-(4-((2-aminophenyl)carbamoyl)benzyl)-1H-indazol-5-ylcarbamate] | ≤ 50 |
| Nc1ccccc1NC(=O)c1ccc(Cn2cc3cc(NC(=O)OCc4ccccc4)ccc3n2)cc1 [Example 16, Benzyl 2-(4-((2-aminophenyl)carbamoyl)benzyl)-2H-indazol-5-ylcarbamate] | ≤ 50 |
| Nc1ccc(-c2ccccc2)cc1NC(=O)c1ccc(Cn2cc3cc([N+](=O)[O-])ccc3n2)cc1 [Example 17, N-(4-Amino-biphenyl-3-yl)-4-(5-nitro-indazol-2-ylmethyl)-benzamide] | ≤ 50 |
| Nc1ccccc1NC(=O)c1ccc(Cn2cc3ccccc3n2)s1 [Example 19, 5-((2H-Indazol-2-yl)methyl)-N-(2-aminophenyl)thiophene-2-carboxamide] | 100 to 500 |
| Nc1ccccc1NC(=O)c1ccc(Cn2cc3cc([N+](=O)[O-])ccc3n2)s1 [Example 20, N-(2-Aminophenyl)-5-((5-nitro-2H-indazol-2-yl)methyl)thiophene-2-carboxamide] | ≤ 50 |
| Nc1ccccc1NC(=O)c1ccc(Cn2ncc3cc(NC(=O)N4CCOCC4)ccc32)cc1 [Example 21, N-(1-(4-((2-Aminophenyl)carbamoyl)benzyl)-1H-indazol-5-yl)morpholine-4-carboxamide] | ≤ 50 |
| Nc1ccccc1NC(=O)c1ccc(Cn2ncc3cc(NC(=O)OCCN4CCOCC4)ccc32)cc1 [Example 22, 2-Morpholinoethyl 1-(4-((2-aminophenyl)carbamoyl)benzyl)-1H-indazol-5-ylcarbamate] | ≤ 50 |
| Nc1ccccc1NC(=O)c1ccc(Cn2ncc3cc(NC(=O)OCc4cccnc4)ccc32)cc1 [Example 23, Pyridin-3-ylmethyl 1-(4-((2-aminophenyl)carbamoyl)benzyl)-1H-indazol-5-ylcarbamate] | ≤ 50 |
| Nc1ccccc1NC(=O)c1ccc(Cn2ncc3ccccc32)s1 [Example 24, 5-((1H-Indazol-1-yl)methyl)-N-(2-aminophenyl)thiophene-2-carboxamide] | 100 to 500 |
| Nc1ccc(-c2ccccc2)cc1NC(=O)c1ccc(Cn2cc3cccnc3n2)cc1 [Example 26, N-(4-Amino-biphenyl-3-yl)-4-pyrazolo[3,4-b]pyridin-2-ylmethyl-benzamide] | ≤ 50 |
| Nc1ccccc1NC(=O)c1ccc(CNc2n[nH]c3ccccc23)cc1 [Example 30, 4-((1H-indazol-3-ylamino)methyl)-N-(2-aminophenyl)benzamide] | 50 to 100 |
| CC(Cn1ncc2ccccc21)c1ccc(C(=O)Nc2ccccc2N)cc1 (centres unmarked) [Example 39, 4-(1-(1H-indazol-1-yl)propan-2-yl)-N-(2-aminophenyl)benzamide] | ≥ 500 |
| Nc1ccccc1NC(=O)c1ccc(CCn2ncc3ccccc32)cc1 [Example 40, 4-(2-(1H-indazol-1-yl)ethyl)-N-(2-aminophenyl)benzamide] | 100 to 500 |
| Nc1ccccc1NC(=O)c1ccc(Cn2ncc3c(Cl)cccc32)cc1 [Example 42, N-(2-aminophenyl)-4-((4-chloro-1H-indazol-1-yl)methyl)benzamide] | ≤ 50 |

Now from value to molecule:

| IC50 [nM] | Structure (SMILES) |
| --- | --- |
| ≤ 50 | Nc1ccccc1NC(=O)c1ccc(Cn2ncc3ccccc32)cc1 [Example 1, 4-((1H-indazol-1-yl)methyl)-N-(2-aminophenyl)benzamide] |
| 50 to 100 | Nc1ccccc1NC(=O)c1ccc(Cn2cc3ccccc3n2)cc1 [Example 2, 4-((2H-indazol-2-yl)methyl)-N-(2-aminophenyl)benzamide] |
| ≤ 50 | CC(=O)Nc1ccc2nn(Cc3ccc(C(=O)Nc4ccccc4N)cc3)cc2c1 [Example 4, 4-((5-acetamido-2H-indazol-2-yl)methyl)-N-(2-aminophenyl)benzamide] |
| ≤ 50 | Nc1ccc2c(cnn2Cc2ccc(C(=O)Nc3ccccc3N)cc2)c1 [Example 7, 4-((5-amino-1H-indazol-1-yl)methyl)-N-(2-aminophenyl)benzamide] |
| ≤ 50 | Nc1ccccc1NC(=O)c1ccc(Cn2cc3cc([N+](=O)[O-])ccc3n2)cc1 [Example 8, N-(2-aminophenyl)-4-((5-nitro-2H-indazol-2-yl)methyl)benzamide] |
| 50 to 100 | Nc1ccc2nn(Cc3ccc(C(=O)Nc4ccccc4N)cc3)cc2c1 [Example 9, 4-((5-amino-2H-indazol-2-yl)methyl)-N-(2-aminophenyl)benzamide] |
| ≤ 50 | Nc1ccccc1NC(=O)c1ccc(Cn2cc3cc(NC(=O)c4ccccc4)ccc3n2)cc1 [Example 10, 4-((5-benzamido-2H-indazol-1-yl)methyl)-N-(2-aminophenyl)benzamide] |
| ≤ 50 | COCCOC(=O)Nc1ccc2nn(Cc3ccc(C(=O)Nc4ccccc4N)cc3)cc2c1 [Example 11, 2-Methoxyethyl 2-(4-((2-aminophenyl)carbamoyl)benzyl)-2H-indazol-5-ylcarbamate] |
| ≤ 50 | COC(=O)Nc1ccc2nn(Cc3ccc(C(=O)Nc4ccccc4N)cc3)cc2c1 [Example 12, Methyl 2-(4-((2-aminophenyl)carbamoyl)benzyl)-2H-indazol-5-ylcarbamate] |
| ≤ 50 | Nc1ccccc1NC(=O)c1ccc(Cn2cc3cc(NC(=O)N4CCOCC4)ccc3n2)cc1 [Example 18, N-(2-(4-((2-Aminophenyl)carbamoyl)benzyl)-2H-indazol-5-yl)morpholine-4-carboxamide] |
| 100 to 500 | Nc1ccccc1NC(=O)c1ccc(Cn2cc3cccnc3n2)cc1 [Example 25, 4-((2H-Pyrazolo[3,4-b]pyridin-2-yl)methyl)-N-(2-aminophenyl)benzamide] |
| ≤ 50 | Nc1ccc(-c2ccccc2)cc1NC(=O)c1ccc(Cn2cc3ccccc3n2)cc1 [Example 27, N-(4-Amino-biphenyl-3-yl)-4-indazol-2-ylmethyl-benzamide] |
| 50 to 100 | Cc1nn(Cc2ccc(C(=O)Nc3ccccc3N)cc2)c2ccccc12 [Example 28, N-(2-Aminophenyl)-4-((3-methyl-1H-indazol-1-yl)methyl)benzamide] |
| 50 to 100 | Cc1c2ccccc2nn1Cc1ccc(C(=O)Nc2ccccc2N)cc1 [Example 29, N-(2-Aminophenyl)-4-((3-methyl-2H-indazol-2-yl)methyl)benzamide] |
| ≥ 500 | Nc1ccccc1NC(=O)c1ccc(Cn2cccn2)cc1 [Example 31, 4-((1H-pyrazol-1-yl)methyl)-N-(2-aminophenyl)benzamide] |
| ≥ 500 | COC(=O)c1ccc(N)c(NC(=O)c2ccc(Cn3cc4ccccc4n3)cc2)c1 [Example 33, Methyl 3-(4-((2H-indazol-2-yl)methyl)benzamido)-4-aminobenzoate] |
| 100 to 500 | Cc1cnn(Cc2ccc(C(=O)Nc3ccccc3N)cc2)c1 [Example 34, N-(2-aminophenyl)-4-((4-methyl-1H-pyrazol-1-yl)methyl)benzamide] |
| 50 to 100 | Nc1ccccc1NC(=O)c1ccc(Cn2cc3ccc(F)cc3n2)cc1 [Example 35, N-(2-aminophenyl)-4-((6-fluoro-2H-indazol-2-yl)methyl)benzamide] |
| 50 to 100 | Nc1ccccc1NC(=O)c1ccc(Cn2ncc3ccc(F)cc32)cc1 [Example 36, N-(2-aminophenyl)-4-((6-fluoro-1H-indazol-1-yl)methyl)benzamide] |
| 50 to 100 | Nc1ccccc1NC(=O)c1ccc(Cn2ncc3cc(F)ccc32)cc1 [Example 37, N-(2-aminophenyl)-4-((5-fluoro-1H-indazol-1-yl)methyl)benzamide] |
| ≤ 50 | Nc1ccccc1NC(=O)c1ccc(Cn2cc3cc(F)ccc3n2)cc1 [Example 38, N-(2-aminophenyl)-4-((5-fluoro-2H-indazol-2-yl)methyl)benzamide] |
| 50 to 100 | Nc1ccccc1NC(=O)c1ccc(CCn2cc3ccccc3n2)cc1 [Example 41, 4-(2-(2H-indazol-2-yl)ethyl)-N-(2-aminophenyl)benzamide] |
| ≤ 50 | Nc1ccccc1NC(=O)c1ccc(Cn2cc3c(Cl)cccc3n2)cc1 [Example 43, N-(2-aminophenyl)-4-((4-chloro-2H-indazol-2-yl)methyl)benzamide] |
| 50 to 100 | Nc1ccccc1NC(=O)c1ccc(Cn2ncc3c(F)cc(F)cc32)cc1 [Example 44, N-(2-aminophenyl)-4-((4,6-difluoro-1H-indazol-1-yl)methyl)benzamide] |
| 50 to 100 | Nc1ccccc1NC(=O)c1ccc(Cn2cc3c(F)cc(F)cc3n2)cc1 [Example 45, N-(2-aminophenyl)-4-((4,6-difluoro-2H-indazol-2-yl)methyl)benzamide] |
| 50 to 100 | Nc1ccccc1NC(=O)c1ccc(Cn2ncc3cccc(F)c32)cc1 [Example 46, N-(2-aminophenyl)-4-((7-fluoro-1H-indazol-1-yl)methyl)benzamide] |
| 50 to 100 | Nc1ccccc1NC(=O)c1ccc(Cn2cc3cccc(F)c3n2)cc1 [Example 47, N-(2-aminophenyl)-4-((7-fluoro-2H-indazol-2-yl)methyl)benzamide] |
| 50 to 100 | Nc1ccccc1NC(=O)c1ccc(Cn2ncc3c(F)cccc32)cc1 [Example 48, N-(2-aminophenyl)-4-((4-fluoro-1H-indazol-1-yl)methyl)benzamide] |
